Measured values taken from ChEMBL document CHEMBL6134814, “Asiatic acid and its derivatives: Pharmacological insights and applications” (Eur J Med Chem, 2025).

Legend:
HT-29 [1] = assay: Antiproliferative activity against human HT-29 cells assessed as reduction in cell viability incubated for 72 hrs by MTT assay; format: functional, cell-based; conditions: HT-29, 72 h
HCT-116 [2] = assay: Cytotoxicity against human HCT-116 cells assessed as reduction in cell viability incubated fro 48 hrs by MTT assay; format: functional, cell-based; conditions: HCT-116, 48 h
[3] = Cytotoxicity against human SPCA1 cells assessed as reduction in cell viability incubated fro 48 hrs by MTT assay; format: functional, cell-based; conditions: SPCA1, 48 h
SK-OV-3 [4] = assay: Cytotoxicity against human SK-OV-3 cells assessed as reduction in cell viability incubated fro 48 hrs by MTT assay; format: functional, cell-based; conditions: SK-OV-3, 48 h
B16-F10 = assay: Anticancer activity against mouse B16-F10 cells assessed as reduction in cell growth incubated for 72 hrs by CCK-8 assay; format: functional, cell-based; conditions: B16-F10, 72 h
PC-3 = assay: Antiproliferative activity against human PC-3 cells assessed as reduction in cell growth incubated for 72 hrs by MTT assay; format: functional, cell-based; conditions: PC-3, 72 h
Jurkat = assay: Antiproliferative activity against human Jurkat cells assessed as reduction in cell growth incubated for 72 hrs by XTT assay; format: functional, cell-based
MIA PaCa-2 = assay: Antiproliferative activity against human MIA PaCa-2 cells assessed as reduction in cell growth incubated for 72 hrs by MTT assay; format: functional, cell-based; conditions: MIA PaCa-2, 72 h
A-375 [5] = assay: Antiproliferative activity against human A-375 cells assessed as reduction in cell growth incubated for 72 hrs by MTT assay; format: functional, cell-based; conditions: A-375, 72 h
Hepatocyte [6] = assay: Hepatoprotective activity against CCl4-induced liver injury in male Wistar rat hepatocytes assessed as at 50 uM relative to control; format: functional
[7] = Antiproliferative activity against human PC9 Gefitinib-resistant (GR) cell assessed as reduction in cell viability incubated for 72 hrs by CCK-8 assay; format: functional, cell-based
A549 = assay: Antiproliferative activity against human A549 cells assessed as reduction in cell viability incubated for 72 hrs by CCK-8 assay; format: functional, cell-based; conditions: A549, 72 h
SGC-7901 [8] = assay: Antiproliferative activity against human SGC-7901 cells assessed as reduction in cell viability incubated for 48 hrs by MTT assay; format: functional, cell-based; conditions: SGC-7901, 48 h
HepG2 [9] = assay: Antiproliferative activity against human HepG2 cells assessed as reduction in cell viability incubated for 48 hrs by MTT assay; format: functional, cell-based; conditions: HepG2, 48 h
Carbonic anhydrase 9 = Carbonic anhydrase 9 (Homo sapiens, UniProt Q16790); assay: Binding affinity to human carbonic anhydrase 9 assessed as inhibition constant
[10] = molecular target: Carbonic anhydrase 5A, mitochondrial (Homo sapiens, UniProt P35218); assay: Binding affinity to human carbonic anhydrase 5A assessed as inhibition constant
Sequence of Carbonic anhydrase 5A, mitochondrial (P35218 whole entry): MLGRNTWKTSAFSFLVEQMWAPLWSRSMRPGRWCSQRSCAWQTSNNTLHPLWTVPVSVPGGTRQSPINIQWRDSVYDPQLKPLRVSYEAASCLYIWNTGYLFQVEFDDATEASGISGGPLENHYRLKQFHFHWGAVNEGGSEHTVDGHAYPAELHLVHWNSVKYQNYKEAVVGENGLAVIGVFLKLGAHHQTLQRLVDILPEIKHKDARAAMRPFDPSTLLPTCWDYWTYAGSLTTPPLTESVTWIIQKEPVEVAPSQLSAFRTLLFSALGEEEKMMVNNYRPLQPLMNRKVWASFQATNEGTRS

Carbonic anhydrase 2 = Carbonic anhydrase 2 (Homo sapiens, UniProt P00918); assay: Binding affinity to human carbonic anhydrase 2 assessed as inhibition constant
Carbonic anhydrase 1 = Carbonic anhydrase 1 (Homo sapiens, UniProt P00915); assay: Binding affinity to human carbonic anhydrase I assessed as inhibition constant
Sequence of Carbonic anhydrase 1 (P00915 whole entry): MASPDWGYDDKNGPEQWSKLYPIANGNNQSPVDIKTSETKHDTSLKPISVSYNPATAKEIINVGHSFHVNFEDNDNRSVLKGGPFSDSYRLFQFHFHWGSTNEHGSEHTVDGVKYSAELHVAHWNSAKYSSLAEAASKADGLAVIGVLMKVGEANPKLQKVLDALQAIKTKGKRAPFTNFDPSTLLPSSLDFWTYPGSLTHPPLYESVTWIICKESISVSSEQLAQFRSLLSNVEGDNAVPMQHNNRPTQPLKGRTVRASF

Hepatocyte [11] = assay: Hepatoprotective activity against glucosamine-induced liver injury in rat hepatocytes assessed as at 50 uM relative to control; format: functional
K562 = assay: Cytotoxicity against human K562 cells assessed as reduction in cell viability incubated for 24 hrs by MTT assay; format: functional, cell-based; conditions: K562, 24 h
HeLa = assay: Antiproliferative activity against human HeLa cells; format: functional, cell-based
HepG2 [12] = assay: Antiproliferative activity against human HepG2 cells; format: functional, cell-based
BGC-823 = assay: Antiproliferative activity against human BGC-823 cells; format: functional, cell-based
[13] = Inhibition of alpha-glucosidase (unknown origin); parameters: species or system Homo sapiens
SGC-7901 [14] = assay: Antiproliferative activity against human SGC-7901 cells assessed as reduction in cell viability incubated for 72 hrs by MTT assay; format: functional, cell-based; conditions: SGC-7901, 72 h
HepG2 [15] = assay: Antiproliferative activity against human HepG2 cells assessed as reduction in cell viability incubated for 72 hrs by MTT assay; format: functional, cell-based; conditions: HepG2, 72 h
A2780 [16] = assay: Cytotoxicity against human A2780 cells assessed as reduction in cell growth incubated for 72 hrs by SRB assay; format: functional, cell-based; conditions: A2780, 72 h
A-375 [17] = assay: Cytotoxicity against human A-375 cells assessed as reduction in cell growth incubated for 72 hrs by SRB assay; format: functional, cell-based; conditions: A-375, 72 h
HT-29 [18] = assay: Cytotoxicity against human HT-29 cells assessed as reduction in cell growth incubated for 72 hrs by SRB assay; format: functional, cell-based; conditions: HT-29, 72 h
MCF7 [19] = assay: Cytotoxicity against human MCF7 cells assessed as reduction in cell growth incubated for 72 hrs by SRB assay; format: functional, cell-based; conditions: MCF7, 72 h
HepG2 [20] = assay: Cytotoxicity against human HepG2 cells assessed as reduction in cell growth incubated for 72 hrs by MTT assay; format: functional, cell-based; conditions: HepG2, 72 h
A2780 [21] = assay: Cytotoxicity against human A2780 cells assessed as reduction in cell growth incubated for 72 hrs by MTT assay; format: functional, cell-based; conditions: A2780, 72 h
HCT-116 [22] = assay: Cytotoxicity against human HCT-116 cells assessed as reduction in cell growth incubated for 72 hrs by MTT assay; format: functional, cell-based; conditions: HCT-116, 72 h
MCF7 [23] = assay: Cytotoxicity against human MCF7 cells assessed as reduction in cell growth incubated for 72 hrs by MTT assay; format: functional, cell-based; conditions: MCF7, 72 h
HL-60 = assay: Cytotoxicity against human HL-60 cells assessed as reduction in cell growth incubated for 72 hrs by MTT assay; format: functional, cell-based; conditions: HL-60, 72 h
HepG2 [24] = assay: Cytotoxicity against human HepG2 cells assessed as reduction in cell viability incubated for 48 hrs by MTT assay; format: functional, cell-based; conditions: HepG2, 48 h
SK-LU-1 = assay: Cytotoxicity against human SK-LU-1 cells assessed as reduction in cell viability incubated for 48 hrs by MTT assay; format: functional, cell-based; conditions: SK-LU-1, 48 h
KB = assay: Cytotoxicity against human KB cells assessed as reduction in cell viability incubated for 48 hrs by MTT assay; format: functional, cell-based
SK-OV-3 [25] = assay: Anticancer activity against human SK-OV-3 cells assessed as reduction in cell growth at 40 microg/ml incubated for 72 hrs by MTT assay relative to control; format: functional; parameters: scale not given: the % may be the effect or the level left; conditions: dose 40 µg/ml
OVCAR-3 = assay: Anticancer activity against human OVCAR-3 cells assessed as reduction in cell growth at 40 microg/ml incubated for 72 hrs by MTT assay relative to control; format: functional; parameters: scale not given: the % may be the effect or the level left; conditions: dose 40 µg/ml

CC(=O)OC[C@@]1(C)[C@@H]2CC[C@]3(C)[C@H](CC=C4[C@@H]5[C@@H](C)[C@H](C)CC[C@]5(C(=O)NO)CC[C@]43C)[C@@]2(C)C[C@@H](OC(C)=O)[C@@H]1OC(C)=O
IC50 (HT-29 [1]): 4.12 µM

CCOP(=O)(OCC)C(NC(=O)[C@]12CC[C@@H](C)[C@H](C)[C@H]1C1=CC[C@@H]3[C@@]4(C)C[C@@H](OC(C)=O)[C@H](OC(C)=O)[C@@](C)(COC(C)=O)[C@@H]4CC[C@@]3(C)[C@]1(C)CC2)c1ccccc1Cl (stereo not given in full)
IC50 (HCT-116 [2]): 26.1 µM | IC50 [3]: 15 µM | IC50 (SK-OV-3 [4]): 27.5 µM

COC(=O)C1CCCN1C(=O)[C@]12CC[C@@H](C)[C@H](C)[C@H]1C1=CC[C@@H]3[C@@]4(C)C[C@@H](OC(C)=O)[C@H](OC(C)=O)[C@@](C)(COC(C)=O)[C@@H]4CC[C@@]3(C)[C@]1(C)CC2 (stereo not given in full)
IC50 (B16-F10): 4.2 µM

COC(=O)[C@]12CC[C@@H](C)[C@H](C)[C@H]1C1=CC(=O)[C@@H]3[C@@]4(C)C(C=O)=C[C@@](C)(COS(C)(=O)=O)[C@@H]4CC[C@@]3(C)[C@]1(C)CC2
IC50 (PC-3): 0.42 µM | IC50 (Jurkat): 0.11 µM | IC50 (MIA PaCa-2): 0.46 µM | IC50 (A-375 [5]): 0.25 µM

C[C@H]1[C@H](C)CC[C@]2(C(=O)O)CC[C@]3(C)C(=CC[C@@H]4[C@@]5(C)CC[C@H](O)[C@@](C)(CO)[C@@H]5CC[C@]43C)[C@H]12
Activity (Hepatocyte [6]): 58.3%

C[C@H]1[C@H](C)CC[C@]2(C(=O)O)CC[C@]3(C)C(=CC[C@@H]4[C@@]5(C)C[C@@H](OC(=O)CCC(=O)O)[C@@H]6OC(C)(C)OC[C@@]6(C)[C@@H]5CC[C@]43C)[C@H]12
IC50 [7]: 25.6 µM | IC50 (A549): 26 µM

COc1cccc(NC(=O)[C@]23CC[C@@H](C)[C@H](C)[C@H]2C2=CC[C@@H]4[C@@]5(C)CC6=NCCN=C6[C@@](C)(C=O)[C@@H]5CC[C@@]4(C)[C@]2(C)CC3)c1
IC50 (SGC-7901 [8]): 3.96 µM | IC50 (HepG2 [9]): 4.18 µM

C[C@H]1[C@H](C)CC[C@]2(C(=O)Nc3ccccc3)CC[C@]3(C)C(=CC[C@@H]4[C@@]5(C)C[C@@H](OS(N)(=O)=O)[C@H](OS(N)(=O)=O)[C@@](C)(COS(N)(=O)=O)[C@@H]5CC[C@]43C)[C@H]12
Ki (Carbonic anhydrase 9): 0.0258 µM | Ki [10]: 0.0362 µM | Ki (Carbonic anhydrase 2): 0.298 µM | Ki (Carbonic anhydrase 1): 5.23 µM

COC(=O)[C@]12CC[C@@H](C)[C@H](C)[C@H]1C1=CC[C@@H]3[C@@]4(C)C[C@@H](OC(C)=O)C(=O)[C@@](C)(CC(=O)O)[C@@H]4CC[C@@]3(C)[C@]1(C)CC2
Activity (Hepatocyte [11]): 66.4%

C[C@H]1[C@H](C)CC[C@]2(C(=O)OCc3ccccc3)CC[C@]3(C)C(=CC[C@@H]4[C@@]5(C)C[C@@H](O)[C@H](O)[C@@](C)(CO)[C@@H]5CC[C@]43C)[C@H]12
IC50 (K562): 4.1 µM

CC(=O)OC[C@@]1(C)[C@@H]2CC[C@]3(C)[C@H](C(=O)C=C4[C@@H]5[C@@H](C)[C@H](C)CC[C@]5(C(=O)OCCO)CC[C@]43C)[C@@]2(C)C[C@@H](OC(C)=O)[C@@H]1OC(C)=O
IC50 (HeLa): 4.78 µM | IC50 (HepG2 [12]): 6.84 µM | IC50 (BGC-823): 8.75 µM

CC(N)C(=O)N1CCN(C(=O)[C@]23CC[C@@H](C)[C@H](C)[C@H]2C2=CC[C@@H]4[C@@]5(C)C[C@@H](O)[C@H](O)[C@@](C)(CO)[C@@H]5CC[C@@]4(C)[C@]2(C)CC3)CC1 (stereo not given in full)
IC50 [13]: 1190 µM

CC(=O)OC[C@@]1(C)[C@@H]2CC[C@]3(C)[C@H](C(=O)C=C4[C@@H]5[C@@H](C)[C@H](C)CC[C@]5(C(=O)Nc5ccccc5CO)CC[C@]43C)[C@@]2(C)C[C@@H](OC(C)=O)[C@@H]1OC(C)=O
IC50 (SGC-7901 [14]): 3.2 µM | IC50 (HepG2 [15]): 2.2 µM

CC(=O)O[C@@H]1C[C@@]2(C)[C@@H](CC[C@]3(C)[C@@H]2CC=C2[C@@H]4[C@@H](C)[C@H](C)CC[C@]4(C(=O)N4CCCN(C(=O)c5ccccc5-c5c6ccc(=[N+](CCO)CCO)cc-6oc6cc(N(CCO)CCO)ccc56)CCC4)CC[C@]23C)[C@](C)(OC(C)=O)[C@H]1OC(C)=O
IC50 (A2780 [16]): 0.0019 µM | IC50 (A-375 [17]): 0.0074 µM | IC50 (HT-29 [18]): 0.012 µM | IC50 (MCF7 [19]): 0.017 µM

COC(=O)[C@@]1(C)[C@@H]2CC[C@]3(C)[C@H](CC=C4[C@@H]5[C@@H](C)[C@H](C)CC[C@]5(C(=O)Nc5ccccc5)CC[C@]43C)[C@@]2(C)C[C@@H](OC)[C@@H]1OC(C)=O
IC50 (HepG2 [20]): 1.43 µM | IC50 (A2780 [21]): 1.28 µM | IC50 (HCT-116 [22]): 1.08 µM | IC50 (MCF7 [23]): 3.99 µM | IC50 (HL-60): 0.48 µM

CCOC(=O)CNC(=O)[C@]12CC[C@@H](C)[C@H](C)[C@H]1C1=CC[C@@H]3[C@@]4(C)C[C@@H](OC(C)=O)[C@H](OC(C)=O)[C@@](C)(COC(C)=O)[C@@H]4CC[C@@]3(C)[C@]1(C)CC2
IC50 (HepG2 [24]): 1.99 µM | IC50 (SK-LU-1): 1.39 µM | IC50 (KB): 1.39 µM

C[C@H]1[C@H](C)CC[C@]2(C(=O)O)CC[C@]3(C)C(=CC[C@@H]4[C@@]5(C)C[C@@H](O)[C@H](O)[C@@](C)(CO)[C@@H]5CC[C@]43C)[C@H]12 [ASIATIC ACID]
Activity (SK-OV-3 [25]): 50% | Activity (OVCAR-3): 50%
